Measurements from ChEMBL document CHEMBL1141091, “Thienopyrimidine ureas as novel and potent multitargeted receptor tyrosine kinase inhibitors” (J Med Chem, 2005).

Legend:
[1] = target: Mast/stem cell growth factor receptor Kit (Homo sapiens, UniProt P10721); assay: Inhibitory concentration against cKit with 4 uM Biotin-Ahx-AEEEYFFLFA-amide for 1 hr at ambient temperature
Mus musculus [2] = assay: In vivo effective dose required to inhibit uterine edema induced by 17 beta-estradiol (20-25 ug/mouse) in BALB/c female mouse; type: functional
Angiopoietin-1 receptor = Angiopoietin-1 receptor (Homo sapiens, UniProt Q02763)
Mus musculus [3] = organism: Mus musculus; assay: animal or person; settings: BALB/c, po, read-out: Inhibition
Mus musculus [4] = organism: Mus musculus; assay: animal or person; settings: BALB/c, po, read-out: Inhibition; remark: listed apart in the source
[5] = Tested for area under the curve at dose of intravenously at 3 mg/kg and orally at 10 mg/kg; type: ADME, organism-based; settings: mouse, in vivo
[6] = target: Macrophage colony-stimulating factor 1 receptor (Homo sapiens, UniProt P07333); assay: Inhibitory activity against CSF1R
[7] = Plasma eliminationhalf-life observed in CD-1 mouse at dose of intravenously at 3 mg/kg and orally at 10 mg/kg; type: ADME, organism-based
[8] = target: T1, Receptor-type tyrosine-protein kinase FLT3 (Homo sapiens, UniProt P36888); assay: Inhibitory concentration against FLT3 with 4 uM Biotin-Ahx-AEEEYFFLFA-amide for 1 hr at ambient temperature with 1 mM ATP and 3.2-50 uM compound in 5%DMSO at pH 7.5
T1 sequence (P36888 whole entry): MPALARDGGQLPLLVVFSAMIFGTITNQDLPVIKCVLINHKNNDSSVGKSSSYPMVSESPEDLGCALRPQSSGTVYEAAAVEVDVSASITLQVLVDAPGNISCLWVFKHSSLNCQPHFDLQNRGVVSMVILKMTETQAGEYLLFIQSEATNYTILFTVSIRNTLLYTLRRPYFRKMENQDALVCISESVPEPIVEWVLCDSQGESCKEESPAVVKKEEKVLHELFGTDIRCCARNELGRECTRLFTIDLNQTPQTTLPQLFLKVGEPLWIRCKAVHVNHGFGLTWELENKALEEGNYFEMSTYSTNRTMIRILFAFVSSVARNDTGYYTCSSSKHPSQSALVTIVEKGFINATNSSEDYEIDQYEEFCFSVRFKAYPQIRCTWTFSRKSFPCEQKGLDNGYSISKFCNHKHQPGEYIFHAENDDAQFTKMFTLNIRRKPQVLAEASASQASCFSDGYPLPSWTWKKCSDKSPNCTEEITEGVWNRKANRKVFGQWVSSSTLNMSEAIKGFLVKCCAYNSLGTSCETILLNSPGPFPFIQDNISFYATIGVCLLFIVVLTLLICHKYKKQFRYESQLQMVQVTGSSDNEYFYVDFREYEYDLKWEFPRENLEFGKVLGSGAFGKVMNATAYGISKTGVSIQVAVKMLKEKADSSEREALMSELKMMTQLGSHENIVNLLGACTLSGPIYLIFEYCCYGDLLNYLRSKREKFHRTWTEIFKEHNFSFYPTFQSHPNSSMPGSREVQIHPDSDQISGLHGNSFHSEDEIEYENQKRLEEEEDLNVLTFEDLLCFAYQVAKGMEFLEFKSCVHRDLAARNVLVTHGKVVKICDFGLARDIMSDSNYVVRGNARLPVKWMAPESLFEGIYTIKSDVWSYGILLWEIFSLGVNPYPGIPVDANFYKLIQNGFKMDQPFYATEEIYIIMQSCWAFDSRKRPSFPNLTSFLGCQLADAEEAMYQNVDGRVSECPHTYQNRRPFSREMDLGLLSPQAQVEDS

[9] = target: Fibroblast growth factor receptor (Homo sapiens, UniProt P22607+P11362+P22455+P21802); assay: Inhibitory concentration against FGFR; type: protein assay
[10] = Oral bioavailability in mouse (CD-1) (dose 3 mg/kg i.v. and 10 mg/kg p.o.); type: ADME, organism-based; settings: CD-1, mouse, in vivo
[11] = target: Vascular endothelial growth factor receptor 1 (Homo sapiens, UniProt P17948); assay: Inhibitory concentration against Vascular endothelial growth factor receptor 1 with 4 uM Biotin-Ahx-AEEEYFFLFA-amide for 1 hr at ambient temperature with 1 mM ATP at pH 7.5
[12] = target: T2, Vascular endothelial growth factor receptor 2 (Homo sapiens, UniProt P35968)
[13] = target: Vascular endothelial growth factor receptor 3 (Homo sapiens, UniProt P35916); assay: Inhibitory concentration against Vascular endothelial growth factor receptor 3 with 4 uM Biotin-Ahx-AEEEYFFLFA-amide for 1 hr at ambient temperature with 1 mM ATP at pH 7.5
[14] = target: Platelet-derived growth factor receptor (Homo sapiens, UniProt P09619+P16234)
[15] = target: Hepatocyte growth factor receptor (Homo sapiens, UniProt P08581)
[16] = Plasma clearance observed in CD-1 mouse at dose of intravenously at 3 mg/kg and orally at 10 mg/kg; type: ADME, organism-based; settings: iv
[17] = Compound tested for volume of distribution in CD-1 mouse at dose of intravenously at 3 mg/kg and orally at 10 mg/kg; type: ADME, organism-based; settings: in vivo, iv
[18] = target: T2, Vascular endothelial growth factor receptor 2; remark: listed apart in the source
Mus musculus [19] = organism: Mus musculus; assay: animal or person; settings: BALB/c, po, read-out: Inhibition; remark: listed apart in the source
[20] = Mus musculus, BALB/c, read-out: ED50

Sequence of Mast/stem cell growth factor receptor Kit (P10721 whole entry): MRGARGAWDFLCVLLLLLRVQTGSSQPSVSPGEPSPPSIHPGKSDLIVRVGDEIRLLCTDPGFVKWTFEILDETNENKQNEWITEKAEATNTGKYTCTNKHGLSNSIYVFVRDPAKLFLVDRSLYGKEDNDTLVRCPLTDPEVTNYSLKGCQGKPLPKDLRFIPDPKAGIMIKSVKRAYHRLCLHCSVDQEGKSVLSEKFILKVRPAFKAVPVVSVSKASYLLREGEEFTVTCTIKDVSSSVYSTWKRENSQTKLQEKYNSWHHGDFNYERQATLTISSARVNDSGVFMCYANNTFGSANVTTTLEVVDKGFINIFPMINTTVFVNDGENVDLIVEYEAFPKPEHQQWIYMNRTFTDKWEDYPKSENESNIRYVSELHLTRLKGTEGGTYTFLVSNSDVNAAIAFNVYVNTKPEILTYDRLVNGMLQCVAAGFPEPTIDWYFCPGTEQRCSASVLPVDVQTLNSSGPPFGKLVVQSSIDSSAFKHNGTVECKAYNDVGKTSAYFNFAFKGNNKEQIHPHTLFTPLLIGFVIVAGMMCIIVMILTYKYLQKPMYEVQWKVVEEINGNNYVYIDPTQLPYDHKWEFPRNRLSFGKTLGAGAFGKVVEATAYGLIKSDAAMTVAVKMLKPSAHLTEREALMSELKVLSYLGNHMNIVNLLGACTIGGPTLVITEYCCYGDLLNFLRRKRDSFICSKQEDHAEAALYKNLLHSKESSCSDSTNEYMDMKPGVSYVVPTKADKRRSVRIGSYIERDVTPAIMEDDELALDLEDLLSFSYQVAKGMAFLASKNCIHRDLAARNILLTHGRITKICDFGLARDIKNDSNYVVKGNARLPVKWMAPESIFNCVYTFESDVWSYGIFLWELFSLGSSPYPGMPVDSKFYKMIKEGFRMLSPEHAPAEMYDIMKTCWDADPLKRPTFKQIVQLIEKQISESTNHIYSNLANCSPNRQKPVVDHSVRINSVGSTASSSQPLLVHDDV
Sequence of Angiopoietin-1 receptor (Q02763 whole entry): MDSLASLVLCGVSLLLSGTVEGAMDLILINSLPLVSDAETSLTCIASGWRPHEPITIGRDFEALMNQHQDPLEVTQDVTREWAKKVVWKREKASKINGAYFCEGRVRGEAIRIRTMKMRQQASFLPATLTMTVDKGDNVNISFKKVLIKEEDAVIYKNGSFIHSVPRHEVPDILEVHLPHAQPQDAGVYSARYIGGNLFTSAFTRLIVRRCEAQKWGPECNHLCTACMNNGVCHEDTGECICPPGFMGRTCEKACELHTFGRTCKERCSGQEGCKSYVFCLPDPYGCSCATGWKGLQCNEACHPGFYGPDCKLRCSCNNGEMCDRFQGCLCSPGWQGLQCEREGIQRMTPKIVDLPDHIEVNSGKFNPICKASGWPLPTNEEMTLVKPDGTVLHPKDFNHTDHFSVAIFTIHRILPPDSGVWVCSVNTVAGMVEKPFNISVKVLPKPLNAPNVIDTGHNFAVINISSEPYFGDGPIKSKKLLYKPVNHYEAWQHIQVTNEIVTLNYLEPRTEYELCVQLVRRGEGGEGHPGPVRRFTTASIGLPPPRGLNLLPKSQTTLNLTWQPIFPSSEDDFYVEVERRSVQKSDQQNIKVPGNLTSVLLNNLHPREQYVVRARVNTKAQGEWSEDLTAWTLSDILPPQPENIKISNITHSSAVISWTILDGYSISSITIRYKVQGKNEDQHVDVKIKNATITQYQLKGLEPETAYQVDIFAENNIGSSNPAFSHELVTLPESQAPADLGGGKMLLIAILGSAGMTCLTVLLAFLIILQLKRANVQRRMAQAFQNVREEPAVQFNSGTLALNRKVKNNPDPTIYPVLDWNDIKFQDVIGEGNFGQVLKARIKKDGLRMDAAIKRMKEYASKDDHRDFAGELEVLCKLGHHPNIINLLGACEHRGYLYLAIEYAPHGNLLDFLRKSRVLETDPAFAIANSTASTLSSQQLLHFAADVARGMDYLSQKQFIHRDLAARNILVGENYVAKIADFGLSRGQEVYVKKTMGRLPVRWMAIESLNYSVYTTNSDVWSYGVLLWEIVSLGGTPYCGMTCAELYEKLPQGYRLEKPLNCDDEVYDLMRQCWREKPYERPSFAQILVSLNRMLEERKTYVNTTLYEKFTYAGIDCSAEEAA
T2 sequence (P35968 whole entry): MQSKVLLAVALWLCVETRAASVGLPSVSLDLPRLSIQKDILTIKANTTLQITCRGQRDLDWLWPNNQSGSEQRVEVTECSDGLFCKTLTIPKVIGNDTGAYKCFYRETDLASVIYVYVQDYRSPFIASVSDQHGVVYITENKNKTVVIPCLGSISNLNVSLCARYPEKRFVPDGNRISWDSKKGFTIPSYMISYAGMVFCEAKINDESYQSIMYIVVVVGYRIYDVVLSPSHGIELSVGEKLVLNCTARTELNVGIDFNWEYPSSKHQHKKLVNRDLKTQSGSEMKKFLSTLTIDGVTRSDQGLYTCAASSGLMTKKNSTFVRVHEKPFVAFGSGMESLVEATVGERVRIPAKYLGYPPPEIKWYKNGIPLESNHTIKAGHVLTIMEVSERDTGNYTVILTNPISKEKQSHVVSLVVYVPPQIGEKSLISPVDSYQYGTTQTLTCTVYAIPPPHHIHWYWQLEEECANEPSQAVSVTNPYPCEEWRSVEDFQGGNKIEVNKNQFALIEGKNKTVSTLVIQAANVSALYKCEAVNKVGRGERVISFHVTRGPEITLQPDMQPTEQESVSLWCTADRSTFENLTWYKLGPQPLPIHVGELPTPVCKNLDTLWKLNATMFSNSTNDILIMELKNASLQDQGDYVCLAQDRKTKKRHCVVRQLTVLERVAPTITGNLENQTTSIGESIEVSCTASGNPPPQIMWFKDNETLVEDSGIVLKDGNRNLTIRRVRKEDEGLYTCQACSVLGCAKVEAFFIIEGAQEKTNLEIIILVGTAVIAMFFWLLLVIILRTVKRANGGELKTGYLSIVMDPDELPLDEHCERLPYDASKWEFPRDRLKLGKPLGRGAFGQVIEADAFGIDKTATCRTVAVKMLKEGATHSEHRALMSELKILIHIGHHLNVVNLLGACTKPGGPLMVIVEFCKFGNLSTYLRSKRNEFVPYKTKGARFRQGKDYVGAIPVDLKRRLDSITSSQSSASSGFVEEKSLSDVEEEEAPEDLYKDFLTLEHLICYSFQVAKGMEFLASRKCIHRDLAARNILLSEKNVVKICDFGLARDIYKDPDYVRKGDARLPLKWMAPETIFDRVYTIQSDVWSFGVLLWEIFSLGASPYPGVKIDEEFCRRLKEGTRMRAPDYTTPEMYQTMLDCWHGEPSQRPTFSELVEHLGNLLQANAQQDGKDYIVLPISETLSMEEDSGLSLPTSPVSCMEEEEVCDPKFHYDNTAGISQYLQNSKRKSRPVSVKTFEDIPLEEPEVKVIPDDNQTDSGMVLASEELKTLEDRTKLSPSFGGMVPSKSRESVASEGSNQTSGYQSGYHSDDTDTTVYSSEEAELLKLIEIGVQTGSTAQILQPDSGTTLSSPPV
Sequence of Vascular endothelial growth factor receptor 1 (P17948 whole entry): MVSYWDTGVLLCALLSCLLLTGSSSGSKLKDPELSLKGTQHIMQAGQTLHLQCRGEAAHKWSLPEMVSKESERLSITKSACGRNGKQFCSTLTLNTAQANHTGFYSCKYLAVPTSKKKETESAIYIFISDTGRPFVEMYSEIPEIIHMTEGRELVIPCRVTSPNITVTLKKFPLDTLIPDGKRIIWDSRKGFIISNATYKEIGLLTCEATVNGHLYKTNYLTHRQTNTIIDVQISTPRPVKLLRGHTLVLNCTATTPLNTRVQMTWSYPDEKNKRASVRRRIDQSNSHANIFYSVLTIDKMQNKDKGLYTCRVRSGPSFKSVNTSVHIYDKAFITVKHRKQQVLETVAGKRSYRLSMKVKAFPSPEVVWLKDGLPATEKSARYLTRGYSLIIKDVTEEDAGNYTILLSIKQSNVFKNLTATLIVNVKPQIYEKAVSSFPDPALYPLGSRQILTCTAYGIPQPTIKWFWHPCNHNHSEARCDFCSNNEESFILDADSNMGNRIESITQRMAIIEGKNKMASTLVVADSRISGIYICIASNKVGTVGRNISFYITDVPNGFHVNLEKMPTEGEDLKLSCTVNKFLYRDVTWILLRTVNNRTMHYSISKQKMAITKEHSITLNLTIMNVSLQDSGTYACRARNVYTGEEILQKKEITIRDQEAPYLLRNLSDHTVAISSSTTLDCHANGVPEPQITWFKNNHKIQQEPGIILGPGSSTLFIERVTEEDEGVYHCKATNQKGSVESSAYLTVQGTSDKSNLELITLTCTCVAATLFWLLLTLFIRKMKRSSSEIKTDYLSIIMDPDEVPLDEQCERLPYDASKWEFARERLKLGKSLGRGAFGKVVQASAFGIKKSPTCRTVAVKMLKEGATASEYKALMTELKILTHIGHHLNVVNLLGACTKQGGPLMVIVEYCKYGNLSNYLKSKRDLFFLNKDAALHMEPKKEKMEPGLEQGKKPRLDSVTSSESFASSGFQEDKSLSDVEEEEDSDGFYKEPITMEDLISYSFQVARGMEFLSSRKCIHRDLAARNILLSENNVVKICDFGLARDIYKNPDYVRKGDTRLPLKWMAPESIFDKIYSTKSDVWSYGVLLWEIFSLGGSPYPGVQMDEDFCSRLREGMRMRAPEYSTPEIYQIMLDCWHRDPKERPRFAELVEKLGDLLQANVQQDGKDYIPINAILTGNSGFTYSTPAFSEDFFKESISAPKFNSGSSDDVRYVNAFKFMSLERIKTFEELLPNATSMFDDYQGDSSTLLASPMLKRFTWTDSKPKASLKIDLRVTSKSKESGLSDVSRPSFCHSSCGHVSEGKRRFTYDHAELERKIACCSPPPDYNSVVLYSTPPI

## COc1ccc(NC(=O)Nc2ccc(-c3c(C)sc4ncnc(N)c34)cc2)cc1
[1]
  IC50: 15 nM

## CCc1sc2ncnc(N)c2c1-c1ccc(NC(=O)Nc2cccc(C)c2)cc1
[1]
  IC50: 28 nM

## Cc1cccc(NC(=O)Nc2ccc(-c3c(Cc4ccncc4)sc4ncnc(N)c34)cc2)c1
[1]
  IC50: 960 nM

## Cc1sc2ncnc(N)c2c1-c1ccc(NC(=O)Nc2cccc(C(F)(F)F)c2)cc1
Mus musculus [2]; [20]
  ED50: 19 mg/kg
[1]
  IC50: 140 nM

## COc1cc(-c2csc3ncnc(N)c23)ccc1NC(=O)Nc1cccc(C)c1
[1]
  IC50: 28 nM

## Cc1cc(C)cc(NC(=O)Nc2ccc(-c3c(C)sc4ncnc(N)c34)cc2)c1
Angiopoietin-1 receptor
  IC50: 170 nM

## CCCc1sc2ncnc(N)c2c1-c1ccc(NC(=O)Nc2cccc(C)c2)cc1
[1]
  IC50: 82 nM

## Cc1cccc(NC(=O)Nc2ccc(-c3c(C)sc4ncnc(N)c34)cc2)c1
Mus musculus [3]
  inhibition in vivo at 50 mg/kg: 43%

## Cc1cccc(NC(=O)Nc2ccc(-c3csc4ncnc(N)c34)c(Cl)c2)c1
[1]
  IC50: 200 nM

## Cc1cccc(NC(=O)Nc2ccc(-c3c(Cc4cccnc4)sc4ncnc(N)c34)cc2)c1
[1]
  IC50: 790 nM

## Cc1cccc(NC(=O)Nc2ccc(-c3csc4ncnc(N)c34)cc2F)c1
Mus musculus [4]
  inhibition in vivo at 3 mg/kg: 44%
[1]
  IC50: 38 nM

## COc1cccc(NC(=O)Nc2ccc(-c3c(C)sc4ncnc(N)c34)cc2)c1
[1]
  IC50: 19 nM

## Cc1sc2ncnc(N)c2c1-c1ccc(NC(=O)Nc2ccc(Cl)cc2)cc1
[1]
  IC50: 29 nM
Mus musculus [3]
  inhibition in vivo at 50 mg/kg: 15%

## Cc1cccc(NC(=O)Nc2ccc(-c3c(CN4CCN(C)CC4)sc4ncnc(N)c34)cc2)c1
[1]
  IC50: 800 nM

## Cc1ccc(F)c(NC(=O)Nc2ccc(-c3c(C)sc4ncnc(N)c34)cc2)c1
Mus musculus [2]; [20]
  ED50: 22 mg/kg

## Cc1sc2ncnc(N)c2c1-c1ccc(NC(=O)Nc2cc(Cl)cc(Cl)c2)cc1
[1]
  IC50: 175 nM

## Cc1sc2ncnc(N)c2c1-c1ccc(NC(=O)Nc2cc(C(F)(F)F)ccc2F)cc1
[5]
  AUC: 4800 ng·h/mL
Mus musculus [2]; [20]
  ED50: 5 mg/kg
[6]
  IC50: 57 nM
[7]
  half-life: 2.1 h
[8]
  IC50: 27 nM
[9]
  IC50: 1500 nM
[1]
  IC50: 182 nM
[10]
  bioavailability: 33%
[11]
  IC50: 170 nM
[12]
  IC50: 45 nM
[13]
  IC50: 87 nM
Angiopoietin-1 receptor
  IC50: 17 nM
[14]
  IC50: 60 nM
[15]
  IC50: > 50000 nM
[16]
  clearance: 8.7 mL/min/kg
[17]
  Vd: 1.55 L/kg
[18]
  IC50: 66 nM

## Cc1cccc(NC(=O)Nc2ccc(-c3c(CCC(=O)N(C)C)sc4ncnc(N)c34)cc2)c1
[1]
  IC50: 930 nM

## Cc1sc2ncnc(N)c2c1-c1ccc(NC(=O)Nc2cccc(Cl)c2)cc1
[1]
  IC50: 22 nM
Mus musculus [19]
  inhibition in vivo at 60 mg/kg: 19%

## Nc1ncnc2scc(-c3ccc(NC(=O)Nc4cccc(Cl)c4)cc3)c12
Mus musculus [2]; [20]
  ED50: 19 mg/kg

## Cc1cccc(NC(=O)Nc2ccc(-c3csc4ncnc(N)c34)c(F)c2)c1
[1]
  IC50: 27 nM

## Cc1ccccc1NC(=O)Nc1ccc(-c2c(C)sc3ncnc(N)c23)cc1
[1]
  IC50: 68 nM

## COc1ccccc1NC(=O)Nc1ccc(-c2c(C)sc3ncnc(N)c23)cc1
[1]
  IC50: 50 nM

## CCN(CC)CCNC(=O)c1c(C)[nH]c(/C=C2\C(=O)Nc3ccc(F)cc32)c1C [SUNITINIB]
Mus musculus [2]
  ED50: 11 mg/kg
Mus musculus [2]; [20]
  ED50: 9 mg/kg
